Test results published in patent US20260374739A1, “SMALL MOLECULAR WEIGHT CHEMICAL COMPOUND TO ANTAGONIZE EPH-EPHRIN TETRAMERIZATION AND INHIBIT BIDIRECTIONAL SIGNALING” (THE BOARD OF REGENTS OF THE UNIVERSITY OF TEXAS SYSTEM, priority 2022, published 2026).
Entries after “also recorded” stand apart in the source; their conditions may differ.

How the values were obtained:
[1] = oral bioavailability, IV 3 mg/kg vs PO 30 mg/kg; assay type: in vivo, mouse; details: PBS
Method: A20.2×HCl compound was provided to the UT Southwestern PK Core facility and tested for bioavailability after a single dose when either injected intravenous (IV) at 3 mg/kg or provided by oral gavage (PO) at 30 mg/kg using PBS as vehicle. The data on oral gavage is quite impressive and indicates significant levels of A20 persist, especially in the liver, after a single dose.
To examine the drug-like nature of the disclosed compounds, tests for solubility was conducted.

EphrinB3-EphB1 = EphrinB3-EphB1 (Homo sapiens, UniProt P54762); assay: Octet, immobilized human EphrinB3 binding to human EphB1
Chain of EphrinB3-EphB1 (P54762 18-540 limits assumed): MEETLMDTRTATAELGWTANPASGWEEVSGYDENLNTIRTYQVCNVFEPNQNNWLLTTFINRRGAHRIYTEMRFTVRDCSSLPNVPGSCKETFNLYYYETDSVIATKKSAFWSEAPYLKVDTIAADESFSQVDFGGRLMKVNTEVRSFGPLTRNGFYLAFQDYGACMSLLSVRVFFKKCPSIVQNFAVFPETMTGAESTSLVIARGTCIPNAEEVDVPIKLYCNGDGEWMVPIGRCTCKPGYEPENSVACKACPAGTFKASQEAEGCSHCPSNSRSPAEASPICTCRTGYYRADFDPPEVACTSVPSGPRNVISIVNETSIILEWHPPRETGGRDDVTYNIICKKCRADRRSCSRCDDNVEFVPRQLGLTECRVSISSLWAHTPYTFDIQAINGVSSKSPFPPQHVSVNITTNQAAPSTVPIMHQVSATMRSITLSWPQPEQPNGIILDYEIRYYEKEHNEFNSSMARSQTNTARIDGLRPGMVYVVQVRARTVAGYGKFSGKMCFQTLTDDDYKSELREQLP
Method: Studies were conducted to confirm that A20 chemicals can effectively target the human Eph/Ephrin proteins. Octet system was used to first characterize the biophysical interactions of the human B class Eph and Ephrin proteins, and then was tested to assess how A20 may disrupt the interactions. Since the human and rodent proteins are highly conserved, and essentially identical, with EphB2 sharing 99.5% identity between human and mouse, with only 5 of ~1,000 amino acids different, any species-specific differences were not anticipated. Therefore, commercially available human EphrinB1-Fc (EB1), EphrinB2-Fc (EB2), and EphrinB3-Fc (EB3) ectodomain proteins were sparsely immobilized onto biosensors and then exposed to 50 nM of soluble human EphB1-His, EphB2-His, and EphB4-His ectodomains for 800 sec association and 1,000 sec dissociation steps with a total of nine different interactions analyzed. In the absence of A20 chemical, the immobilized human EphrinB proteins bound to their appropriate human EphB target proteins; with EphrinB1 only bound EphB1 and EphB2, EphrinB2 bound all three EphB1, EphB2, and EphB4, and EphrinB3 only bound EphB1 and EphB2 (FIG. 19A-19B).
Addition of compound also altered dissociation kinetics. […] This is referred to as the “unsurmountable” component of the Eph-Ephrin interaction (FIG. 21C). Additionally, AUC data was graphed for these runs (FIG. 21D). […]

EphB2, Cos1 cells = assay: ligand:receptor cluster (spot) formation in Cos1 cells, immunofluorescence; assay type: cell-based; details: A20 40 μM; listed as A20
Method: FIG. 14 depicts representative fluorescent images and quantification showing that Cos1 cells exposed to pre-clustered EB2-Fc binds to EphB2 forming spots on the cell (green) that also contain phosphotyrosine (red, arrows).
To assess if A20 would reduce the ability of EphrinB2 to stimulate activation of the EphB tyrosine kinase domain in live cells, Cos1 cells that express endogenous EphB2 were exposed to pre-clustered EB2-Fc ectodomains in the presence or absence of A20 for 30 min. […] Stimulated cells were fixed on the coverslip and subjected to immunofluorescence (IF) with anti-Fc antibodies to detect ligand protein bound to receptor, which leads to formation of circular Eph-Ephrin tetramers that then cluster into large obvious spots on the cell surface by lateral migration through the plasma membrane and also contain anti-phosphotyrosine signal indicating activation of the receptor's kinase domain.

EphB4-Fc / EB2-His = biological target: T1, EphB4-Fc / EB2-His (Mus musculus, UniProt P54761); assay: pulldown EB2-His to EphB4-Fc; assay type: binding; details: up to 250 μM for A20; listed as A20
T1 construct: soluble mouse EB2-His ectodomain, pulldown
T1 sequence (P54761 16-539 limits assumed): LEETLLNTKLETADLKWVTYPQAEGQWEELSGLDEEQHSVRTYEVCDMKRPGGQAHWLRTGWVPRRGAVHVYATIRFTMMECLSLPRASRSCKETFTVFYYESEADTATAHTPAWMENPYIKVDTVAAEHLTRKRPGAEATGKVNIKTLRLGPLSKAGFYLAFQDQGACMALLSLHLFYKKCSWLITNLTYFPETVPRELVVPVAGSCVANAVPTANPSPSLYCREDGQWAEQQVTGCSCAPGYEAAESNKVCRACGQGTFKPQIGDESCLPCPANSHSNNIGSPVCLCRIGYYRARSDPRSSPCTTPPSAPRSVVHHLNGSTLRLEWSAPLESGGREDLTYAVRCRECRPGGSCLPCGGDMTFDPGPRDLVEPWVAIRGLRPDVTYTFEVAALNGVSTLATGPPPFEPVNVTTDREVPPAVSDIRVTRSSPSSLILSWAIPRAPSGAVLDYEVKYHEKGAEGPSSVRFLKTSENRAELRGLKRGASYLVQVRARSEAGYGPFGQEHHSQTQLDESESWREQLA

[2] = biological target: pre-formed EphrinB2-EphB1 tetramer (Homo sapiens, UniProt P54762); assay: Octet competition of pre-existing tetramers, human EphrinB2-EphB1; assay type: binding; details: 2, 10, 50 μM
Chain of pre-formed EphrinB2-EphB1 tetramer (P54762 18-540 limits assumed): as the sequence (P54762 18-540 limits assumed) above
Method: Biophysical studies were conducted to explore if A20 is able to disrupt pre-existing stable tetramers, focusing on interactions of immobilized human EphrinB2 binding to soluble human EphB1 and EphB2, and immobilized mouse EphB2 binding to mouse EphrinB2 (FIGS. 29A-29C). In these experiments, sensor-chip immobilized proteins were first exposed to 50 nM of their soluble target protein for an 800 sec association step and 1,000 sec dissociation step to generate pre-formed stable tetramers, which were then subjected to a 1,000 sec competition step that included either 0, 2, 10, or 50 μM concentrations of A20 salt compound. […] The ability of A20 to disrupt pre-existing tetramers was most pronounced for human EB2-EphB2 and cognate murine EphB2-EB2 experiments and indicated a gradual ongoing dose-dependent decline in tetramers throughout the 1,000 sec competition step (and beyond if allowed) and irrespective of whether the human EphrinB2 or murine EphB2 was the immobilized protein.

[3] = system: normal human dermal fibroblast (NHDF) cells; assay: MTT cytotoxicity; assay type: cell-based; details: up to 10 μM, 48 hr
Method: Potential cytotoxicity of A20 was evaluated using MTT assay performed after culturing normal human dermal fibroblast (NHDF) cells with increasing concentrations of A20 for 48 hr.

EphB1-Fc / EB2-His = biological target: T2, EphB1-Fc / EB2-His (Rattus norvegicus, UniProt P09759); assay: pulldown EB2-His to EphB1-Fc; assay type: binding, mouse EB2; details: 50 and 250 μM for A20; listed as A20
T2 construct: mouse (Mus musculus) EB2-His ectodomain, pulldown
T2 sequence (P09759 18-538): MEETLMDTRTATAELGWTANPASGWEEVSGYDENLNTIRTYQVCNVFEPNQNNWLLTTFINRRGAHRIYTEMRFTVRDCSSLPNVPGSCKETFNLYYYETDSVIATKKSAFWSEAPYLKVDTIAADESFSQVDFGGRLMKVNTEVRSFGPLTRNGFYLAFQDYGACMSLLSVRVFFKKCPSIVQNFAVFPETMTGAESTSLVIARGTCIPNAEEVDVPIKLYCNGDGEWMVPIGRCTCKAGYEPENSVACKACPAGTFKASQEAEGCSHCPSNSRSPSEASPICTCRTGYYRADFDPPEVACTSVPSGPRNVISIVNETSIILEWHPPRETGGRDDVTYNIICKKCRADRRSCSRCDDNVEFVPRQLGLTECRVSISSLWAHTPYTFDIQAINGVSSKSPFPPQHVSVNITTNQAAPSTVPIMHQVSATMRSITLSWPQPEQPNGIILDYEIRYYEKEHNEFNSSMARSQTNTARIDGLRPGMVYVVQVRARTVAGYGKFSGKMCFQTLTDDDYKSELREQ
Text: A20, E13, and other compounds from the top 32 hits were then characterized in pulldown assays. EphB1-Fc was immobilized onto Protein A agarose beads, then mixed with compounds and the soluble EB2-His ectodomain for 1 hr at RT, after which protein complexes were washed and then bound EB2 was detected by immunoblot using anti-His antibodies.

Row | Structure (SMILES) | oral bioavailability [1] | reduction of tetramer formation (EphrinB3-EphB1; EB3-EphB1, A20) [%] | IC (maximum) (EphrinB3-EphB1; read-out: concentration producing maximum inhibition) [µM] | ligand:receptor clusters on cell (EphB2, Cos1 cells) | pulldown EphB4-Fc binding to EB2-His (EphB4-Fc / EB2-His) | competition of pre-formed tetramers [2] | cytotoxicity [3] | pulldown EB2-His binding to EphB1-Fc (EphB1-Fc / EB2-His)
1 | Oc1c(Br)cc(CN2CCOCC2)c2cccnc12 [Compound 6, 4-((7-bromo-8-hydroxyquinolin-1-ium-5-yl)methyl)morpholin-4-ium chloride] | orally bioavailable | – | – | – | – | – | – | –
2 | Oc1c(Br)cc(CN2CCOCC2)c2cccnc12 [Compound 5, 7-bromo-5-(morpholinomethyl)quinolin-8-ol] | – | 40 | 10 | significantly reduced the ability of pre-clustered EB2-Fc to bind/cluster the EphB2 receptor to spots on the cell; also recorded: reduced the number of ligand: receptor clusters per cell | only a weak ability to prevent EphB4-Fc from binding to EB2-His; also recorded: only weak/poor ability to antagonize soluble EB2-His binding | clearly disrupted in a dose-dependent fashion some of the pre-existing EB2-EphB1 tetramers | not toxic | strongly reduced EB2-His binding to EphB1-Fc; also recorded: reduces the ability of soluble EB2-His to bind to immobilized EphB1-Fc
